The source of these data is patent publication US6359009B1, “Substituted anilide insecticidal agents” (BASF Aktiengesellschaft, priority 1998, dated 2002).

Test [1] has as its system Diabrotica undecimrunctata howardi, 3rd instar southern corn rootworm. The test is described as follows: Evaluation against 3rd instar southern corn rootworm, treated talc/soil jar test, mortality after 5 days. It is filed as in vivo, Diabrotica undecimpunctata howardi. To be noted: mortality rating 0-9 after 5 days in soil. The protocol: (§1) Test solutions are prepared by dissolving the test compound in a 35% acetone in water mixture to give a concentration of 10,000 ppm. Subsequent dilutions are made with water as needed.
Diabrotica undecimrunctata howardi, 3rd instar southern corn rootworm
(§2) One cc of fine talc is placed in a 30 mL wide-mouth screw-top glass jar. One mL of the appropriate acetone test solution is pipetted onto the talc so as to provide 1.25 mg, 0.25 mg or 0.025 mg of active ingredient per jar. The jars are set under a gentle air flow until the acetone is evaporated. The dried talc is loosened, 1 cc of millet seed is added to serve as food for the insects and 25 mL of moist soil is added to each jar. The jar is capped and the contents thoroughly mixed mechanically. Following this, ten 3rd instar rootworms are added to each jar and the jars are loosely capped to allow air exchange for the larvae. The treatments are held for 5 days when mortality counts are made. Missing larvae are presumed dead, since they decompose rapidly and can not be found.

In test [2] the test system is Diabrotica virgifera virgifera Leconte, 3rd instar western corn rootworm. Description: Evaluation against 3rd instar western corn rootworm, treated talc/soil jar test, mortality after 5 days. It is filed as in vivo. To be noted: mortality rating 0-9 after 5 days in soil. On the procedure:
as §1
Diabrotica virgifera virgifera Leconte, 3rd instar western corn rootworm
as §2

Turning to `CC(C)[S+]([O-])C(C)(C)C(=O)Nc1ccc(C(F)(F)F)cc1` (stereo not drawn) [Compound 12, α,α,α-Trifluoro-2-(isopropylsulfinyl)-2-methyl-p-propionotoluidide], in test [1], the “Southern Corn Rootworm (1 ppm) rating” value amounted to 8.0, the “Southern Corn Rootworm (10 ppm) rating” value is listed as 9.0 and the “Southern Corn Rootworm (50 ppm) rating” value is 9.0. The “Western Corn Rootworm (1 ppm) rating” value in test [2] (1 ppm) is 0.0. Also, in test [2] (10 ppm), the “Western Corn Rootworm (10 ppm) rating” value is listed as 0.0. For the same compound, the “Western Corn Rootworm (50 ppm) rating” value in test [2] (50 ppm) worked out at 9.0.

Take `CC(C)C(=O)C(C)(C)C(=O)Nc1ccc(C(F)(F)F)cc1` [Compound 1, α,α,α-Trifluoro-2,2,4-trimethyl-3-oxo-p-valerotoluidide]: in test [1], the “Southern Corn Rootworm (1 ppm) rating” value stood at 9.0, the “Southern Corn Rootworm (10 ppm) rating” value turned out to be 9.0 and the “Southern Corn Rootworm (50 ppm) rating” value is reported as 9.0.

Turning to `CC(C)C(=O)C(C)(C)C(=O)Nc1ccc(Cl)cc1` [Compound 37, 4′-Chloro-2,2,4-trimethyl-3-oxovaleranilide], in test [1], the “Southern Corn Rootworm (1 ppm) rating” value came to 0.0, the “Southern Corn Rootworm (10 ppm) rating” value worked out at 9.0 and the “Southern Corn Rootworm (50 ppm) rating” value is given as 9.0.

For `CC(C)C(=O)C(C)(C)C(=O)N(C(=O)c1c(F)cccc1F)c1ccc(C(F)(F)F)cc1` [Compound 8, α,α,α,2,6-Pentafluoro-N-(2,2,4#trimethyl-3 oxovaleryl)-p-benzotoluidide], in test [1], the “Southern Corn Rootworm (1 ppm) rating” value worked out at 0.0, the “Southern Corn Rootworm (10 ppm) rating” value was 0.0 and the “Southern Corn Rootworm (50 ppm) rating” value turned out to be 4.0.

In the case of `CC(C)C(=O)C(C)(C)C(=O)N(C)c1ccc(Cl)cc1` [Compound 2, 4′-Chloro-N,2,2,4-tetramethyl-3-oxo-valeranilide], in test [1], the “Southern Corn Rootworm (1 ppm) rating” value came to 0.0, the “Southern Corn Rootworm (10 ppm) rating” value worked out at 0.0 and the “Southern Corn Rootworm (50 ppm) rating” value is given as 3.5.

On to `CC(C)C(O)C(C)(C)C(=O)Nc1ccc(Cl)cc1` (centres unmarked) [Compound 3, 4′-chloro-3-hydroxy-2,2,4-trimethylvaleranilide], for which, in test [1], the “Southern Corn Rootworm (1 ppm) rating” value was 0.0, the “Southern Corn Rootworm (10 ppm) rating” value is 4.0 and the “Southern Corn Rootworm (50 ppm) rating” value is 8.0.

Take `CC(C)S(=O)(=O)C(C)(C)C(=O)Nc1ccc(C(F)(F)F)cc1` [Compound 13, α,α,α-Trifluoro-2-(isopropylsulfonyl)-2-methyl-p-propionotoluidide]: in test [1], the “Southern Corn Rootworm (1 ppm) rating” value turned out to be 3.0, the “Southern Corn Rootworm (10 ppm) rating” value was determined as 9.0 and the “Southern Corn Rootworm (50 ppm) rating” value came to 9.0.

On to `CC(C)/C(=N\O)C(C)(C)C(=O)Nc1ccc(C(F)(F)F)cc1` [Compound 10, α,α,α-Trifluoro-2,2,4-trimethyl-3-oxo-p-valerotoluidide, 3-oxime], for which the “Southern Corn Rootworm (50 ppm) rating” value in test [1] is given as 7.0.

On to `CC(C)C(=O)C(C)(C)C(=O)N(C(=O)c1ccc(Cl)cc1)c1ccc(C(F)(F)F)cc1` [Compound 7, 4-Chloro-α,α,α-trifluoro-N-(2,2,4-trimethyl-3 oxovaleryl)-p-benzotoluidide], for which, in test [1], the “Southern Corn Rootworm (1 ppm) rating” value was 0.0, the “Southern Corn Rootworm (10 ppm) rating” value is on record as 9.0 and the “Southern Corn Rootworm (50 ppm) rating” value came to 9.0.

As for `CC(C)(C(=O)Nc1ccc(C(F)(F)F)cc1)C(=O)C(C)(C)c1ccccc1` [Compound 11, α,α,α-Trifluoro-2,2,4-trimethyl-3-oxo-4-phenyl-p-valerotoluidide], in test [1], the “Southern Corn Rootworm (50 ppm) rating” value stood at 6.0.
